Data taken from US5151352A, “Process for producing diterpene compounds” (Kyowa Hakko Kogyo Co., Ltd., priority 1990, dated 1992).
In brackets after ≈: the same amount, converted by molar mass.

How the values were obtained:
[1] = tested on: Klebsiella pneumoniae ATCC 10031; experiment: Antibacterial activity, agar dilution method (pH 7.0); type: cell-based; settings: ATCC10031, read-out: minimum growth inhibition concentration (MIC)
Source text: (§1) The antibacterial activities of UCT4-B on four bacteria (i.e., Staphylococcus aureus, Enterococcus faecium, Bacillus subtilis, Klebsiella pneumoniae) were examined by the agar dilution method (pH 7.0)[refer to "Biseibutsu Jikken Manyuaru (Manual of The Microbial Experiments)" 80, Kodansha (1986)].
(§2) The results are shown in terms of the minimum growth inhibition concentration (MIC) in Table 2.

[2] = tested on: Enterococcus faecium ATCC 10541; experiment: as above; type: cell-based; settings: ATCC10541, read-out: minimum growth inhibition concentration (MIC)
Source text: as §1, §2

[3] = tested on: Bacillus subtilis ATCC 10707; experiment: as above; type: cell-based; settings: ATCC10707, read-out: minimum growth inhibition concentration (MIC)
Source text: as §1, §2

[4] = tested on: Staphylococcus aureus ATCC 6538P; experiment: as above; type: cell-based; settings: ATCC6538P, read-out: minimum growth inhibition concentration (MIC)
Source text: as §1, §2

[5] = Acute toxicity, single intravenous administration, 14 days survival; settings: mouse, in vivo, ddy mice, single i.v., Behrens-Karber method
Method: UCT4-B was intravenously administered once to ddy mice weighing about 20 g (each group having 5 animals) and then the survival state of the animals was monitored for 14 days following the administration. Then LD50 of the compound was calculated based on the mortality of mice in each group in accordance with the Behrens-Karber method.

[6] = tested on: lymphocytic leukemia p338 tumor cells; experiment: Effect on lymphocytic leukemia (life-prolonging effect); type: in vivo, CDF1 male mice; settings: i.p., 24 hours after i.p. transplantation
Method: 1×10^6 lymphocytic leukemia p338 tumor cells were intraperitoneally transplanted into CDF1 male mice weighing 22 g (each group having 5 animals). 24 hours after the trans- plantation, 0.2 ml of a solution of UCT4-B in physiological saline or 0.2 ml of physiological saline (the control group) was intraperitoneally administered to the animals.
The results of the test are expressed in terms of T/C (%) calculated by dividing the average survival days of each test group (T) with that of the control group (C).

[7] = Solubility

**Q.** What does the source list for CC1C(O)C(=O)C2(C)C(CO)=CCCC2C1(C)CC(O)C1(C(=O)C=O)CO1 (stereo not shown) [UCT4-B]?
**A.** MIC [1]: 2.1 µg/mL (≈ 5.52 µM); MIC [2]: 4.1 µg/mL (≈ 10.8 µM); MIC [3]: 8.3 µg/mL (≈ 21.8 µM); MIC [4]: 4.1 µg/mL (≈ 10.8 µM); LD50 at 336 h [5]: ≥ 50 mg/kg; Life-prolonging effect (T/C %) ([6]; 3 mg/kg): 124%; Life-prolonging effect (T/C %) ([6]; 6 mg/kg): 131%; Life-prolonging effect (T/C %) ([6]; 12 mg/kg): 127%; Life-prolonging effect (T/C %) ([6]; 25 mg/kg): 137%; Life-prolonging effect (T/C %) ([6]; 50 mg/kg): 141%; Solubility ([7]; acetonitrile): soluble; Solubility ([7]; chloroform): highly soluble; Solubility ([7]; ethyl acetate): highly soluble; Solubility ([7]; hexane): insoluble; Solubility ([7]; methanol): highly soluble; Solubility ([7]; water): soluble
